Data reported in ChEMBL document CHEMBL1201862, “PubChem BioAssay data set” (2004).
Calls of active or inactive are those of the source.

Key:
[1] = molecular target: Protein-tyrosine kinase 2-beta (Homo sapiens, UniProt Q14289);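 also: potency of inhibitors of PYK2 kinase phosphorylation of poly-GT substrate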
[2] = molecular target: T1, Replicative DNA helicase DnaB (Mycobacterium tuberculosis, UniProt P9WMR3); assay: DnaB intein splicing inhibitors, dose response, biochemical, cell-free fluorescence (AID 449749); format: functional
T1 sequence (P9WMR3 whole entry): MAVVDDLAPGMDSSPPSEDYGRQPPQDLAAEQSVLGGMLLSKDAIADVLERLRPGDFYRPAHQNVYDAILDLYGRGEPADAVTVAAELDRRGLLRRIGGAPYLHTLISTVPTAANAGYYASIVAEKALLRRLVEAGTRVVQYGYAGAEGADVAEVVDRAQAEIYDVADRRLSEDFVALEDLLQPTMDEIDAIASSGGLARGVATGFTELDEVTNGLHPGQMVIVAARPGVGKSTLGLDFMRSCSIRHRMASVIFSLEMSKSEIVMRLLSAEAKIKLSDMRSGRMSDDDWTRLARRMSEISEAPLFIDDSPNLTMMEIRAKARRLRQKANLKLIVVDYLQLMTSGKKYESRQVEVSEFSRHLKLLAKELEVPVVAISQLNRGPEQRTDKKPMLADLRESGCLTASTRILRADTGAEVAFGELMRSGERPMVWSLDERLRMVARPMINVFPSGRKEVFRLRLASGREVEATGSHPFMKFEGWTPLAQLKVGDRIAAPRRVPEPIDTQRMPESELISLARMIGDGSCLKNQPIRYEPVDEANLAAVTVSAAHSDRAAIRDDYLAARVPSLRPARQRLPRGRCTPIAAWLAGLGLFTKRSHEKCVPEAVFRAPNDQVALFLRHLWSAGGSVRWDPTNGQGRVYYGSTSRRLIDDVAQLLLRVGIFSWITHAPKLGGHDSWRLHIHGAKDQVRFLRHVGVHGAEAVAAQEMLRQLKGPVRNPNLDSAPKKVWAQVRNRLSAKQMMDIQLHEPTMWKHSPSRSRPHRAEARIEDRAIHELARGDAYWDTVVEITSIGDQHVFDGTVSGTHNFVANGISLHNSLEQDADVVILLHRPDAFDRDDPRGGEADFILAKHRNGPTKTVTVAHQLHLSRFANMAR

[3] = molecular target: T2, Apoptotic protease-activating factor 1 (Homo sapiens, UniProt O14727); format: functional
T2 sequence (O14727 whole entry): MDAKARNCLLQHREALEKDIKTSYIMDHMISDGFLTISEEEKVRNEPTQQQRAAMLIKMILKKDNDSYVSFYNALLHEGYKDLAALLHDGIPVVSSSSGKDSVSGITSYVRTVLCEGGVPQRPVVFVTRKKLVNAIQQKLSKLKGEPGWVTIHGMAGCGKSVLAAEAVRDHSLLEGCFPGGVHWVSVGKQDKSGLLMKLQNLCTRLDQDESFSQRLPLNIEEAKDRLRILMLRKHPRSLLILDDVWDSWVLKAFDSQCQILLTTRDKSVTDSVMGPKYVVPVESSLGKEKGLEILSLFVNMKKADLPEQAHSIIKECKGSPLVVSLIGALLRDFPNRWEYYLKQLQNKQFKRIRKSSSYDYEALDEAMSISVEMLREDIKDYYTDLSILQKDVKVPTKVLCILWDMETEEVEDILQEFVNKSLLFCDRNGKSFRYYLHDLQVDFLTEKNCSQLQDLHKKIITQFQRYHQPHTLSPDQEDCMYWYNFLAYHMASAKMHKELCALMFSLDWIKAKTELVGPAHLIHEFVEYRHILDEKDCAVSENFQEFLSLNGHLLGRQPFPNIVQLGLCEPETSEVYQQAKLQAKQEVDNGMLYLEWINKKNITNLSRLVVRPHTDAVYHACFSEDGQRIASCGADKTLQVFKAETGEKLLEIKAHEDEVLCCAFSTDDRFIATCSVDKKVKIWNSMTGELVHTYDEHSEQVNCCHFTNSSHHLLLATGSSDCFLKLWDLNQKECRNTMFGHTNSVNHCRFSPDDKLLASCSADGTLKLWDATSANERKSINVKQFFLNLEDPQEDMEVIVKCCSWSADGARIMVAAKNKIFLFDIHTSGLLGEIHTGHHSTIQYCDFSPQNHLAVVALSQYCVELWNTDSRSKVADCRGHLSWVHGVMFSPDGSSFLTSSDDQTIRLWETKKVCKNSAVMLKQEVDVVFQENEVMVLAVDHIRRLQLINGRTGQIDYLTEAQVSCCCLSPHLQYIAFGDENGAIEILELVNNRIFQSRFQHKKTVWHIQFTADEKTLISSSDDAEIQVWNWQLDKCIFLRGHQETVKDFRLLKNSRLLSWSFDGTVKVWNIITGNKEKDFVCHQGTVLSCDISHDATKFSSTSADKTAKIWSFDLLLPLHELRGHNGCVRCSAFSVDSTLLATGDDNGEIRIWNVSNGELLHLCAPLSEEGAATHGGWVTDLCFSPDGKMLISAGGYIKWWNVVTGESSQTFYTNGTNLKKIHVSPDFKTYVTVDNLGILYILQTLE

Protein RecA = molecular target: T3, Protein RecA (Mycobacterium tuberculosis, UniProt P9WHJ3); assay: Fluorescence Cell-Free Homogeneous Dose Retest to Identify Inhibitors of RecA-Intein Splicing Activity. [Related pubchem assays (depositor defined):AID2097, AID2223, AID489010, AID492950]; format: functional
T3 sequence (P9WHJ3 whole entry): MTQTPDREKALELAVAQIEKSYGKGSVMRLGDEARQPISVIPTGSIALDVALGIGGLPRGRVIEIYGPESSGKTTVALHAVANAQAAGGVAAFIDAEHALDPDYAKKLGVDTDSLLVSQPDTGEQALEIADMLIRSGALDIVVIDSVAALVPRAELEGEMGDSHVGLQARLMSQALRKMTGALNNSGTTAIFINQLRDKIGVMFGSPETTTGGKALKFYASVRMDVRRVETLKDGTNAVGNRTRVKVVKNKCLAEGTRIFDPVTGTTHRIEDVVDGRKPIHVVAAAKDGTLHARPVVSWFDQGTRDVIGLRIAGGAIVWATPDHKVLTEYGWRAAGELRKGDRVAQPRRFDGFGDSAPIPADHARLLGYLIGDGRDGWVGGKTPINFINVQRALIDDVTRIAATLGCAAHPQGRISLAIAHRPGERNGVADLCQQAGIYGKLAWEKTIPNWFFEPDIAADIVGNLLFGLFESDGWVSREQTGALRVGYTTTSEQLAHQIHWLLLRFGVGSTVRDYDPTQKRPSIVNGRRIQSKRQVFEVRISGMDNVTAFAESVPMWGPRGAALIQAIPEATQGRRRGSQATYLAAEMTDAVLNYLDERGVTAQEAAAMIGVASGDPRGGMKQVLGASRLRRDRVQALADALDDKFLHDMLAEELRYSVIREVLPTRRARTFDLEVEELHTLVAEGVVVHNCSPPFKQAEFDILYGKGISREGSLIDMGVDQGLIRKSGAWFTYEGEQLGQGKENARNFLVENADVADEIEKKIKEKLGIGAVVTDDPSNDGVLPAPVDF

[4] = molecular target: T4, Sentrin-specific protease 8 (Homo sapiens, UniProt Q96LD8); format: functional
T4 sequence (Q96LD8 whole entry): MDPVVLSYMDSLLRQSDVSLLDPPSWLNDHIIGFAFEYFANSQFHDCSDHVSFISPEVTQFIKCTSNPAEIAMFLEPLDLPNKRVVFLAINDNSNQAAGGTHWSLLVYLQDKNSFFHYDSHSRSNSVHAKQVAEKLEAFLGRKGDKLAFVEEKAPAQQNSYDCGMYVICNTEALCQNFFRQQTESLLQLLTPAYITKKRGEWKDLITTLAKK

[5] = molecular target: T4, Sentrin-specific protease 8; format: functional; remark: listed apart in the source
[6] = cytotoxicity in HPDE-C7 cells, cell-based, fluorescence, HTS (AID 430); format: functional; conditions: Homo sapiens
[7] = cytotoxicity in KRAS-transformed pancreatic duct cells, primary screen, cell-based, fluorescence, HTS (AID 431); format: functional; conditions: Homo sapiens;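 also: cell line used: HPDE-C7K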

Protein-tyrosine kinase 2-beta, sequence (Q14289 whole entry): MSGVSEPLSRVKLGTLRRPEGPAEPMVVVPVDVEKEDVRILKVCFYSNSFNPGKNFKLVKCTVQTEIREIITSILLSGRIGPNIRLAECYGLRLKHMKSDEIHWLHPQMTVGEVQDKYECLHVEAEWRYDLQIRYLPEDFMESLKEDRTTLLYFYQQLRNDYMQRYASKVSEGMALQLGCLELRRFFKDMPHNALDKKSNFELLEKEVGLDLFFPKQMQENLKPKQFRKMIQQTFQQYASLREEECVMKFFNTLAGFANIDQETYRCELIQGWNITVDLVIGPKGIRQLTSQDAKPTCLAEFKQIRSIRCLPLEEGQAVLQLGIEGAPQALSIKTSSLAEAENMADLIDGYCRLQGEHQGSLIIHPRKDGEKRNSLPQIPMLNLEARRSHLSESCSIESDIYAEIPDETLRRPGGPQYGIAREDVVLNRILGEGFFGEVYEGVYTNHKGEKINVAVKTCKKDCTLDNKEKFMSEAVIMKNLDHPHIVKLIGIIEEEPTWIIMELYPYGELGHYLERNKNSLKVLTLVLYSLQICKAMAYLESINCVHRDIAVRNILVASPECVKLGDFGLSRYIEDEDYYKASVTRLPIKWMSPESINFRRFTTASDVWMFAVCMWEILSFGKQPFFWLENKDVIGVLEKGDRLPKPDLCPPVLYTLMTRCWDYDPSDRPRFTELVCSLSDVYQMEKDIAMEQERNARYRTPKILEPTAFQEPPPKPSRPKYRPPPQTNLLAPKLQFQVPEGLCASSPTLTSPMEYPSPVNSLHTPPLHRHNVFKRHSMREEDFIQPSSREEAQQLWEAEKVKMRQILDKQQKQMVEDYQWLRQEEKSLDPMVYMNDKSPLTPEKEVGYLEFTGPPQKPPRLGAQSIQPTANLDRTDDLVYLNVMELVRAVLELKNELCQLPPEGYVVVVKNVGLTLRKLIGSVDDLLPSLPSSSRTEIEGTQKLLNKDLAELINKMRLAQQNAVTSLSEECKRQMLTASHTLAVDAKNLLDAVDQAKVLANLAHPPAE

For `O=C1Cc2ccccc2C(=O)N1CCc1ccccc1`, the IC50 [1] was > 69.5 µM (not active), the AC50 [2] was 2.17 µM (active) and the IC50 [3] was 4.03 µM (active). The EC50 (Protein RecA) was 2.99 µM (active), the IC50 [4] was 2.89 µM (active) and the IC50 [5] was 0.148 µM (active).

For `COCCNC(=O)c1c(N)n(CCC2=CCCCC2)c2nc3ccccc3nc12`, the EC50 [6] was > 20 µM (not active) and the EC50 [7] was > 20 µM (not active).
